Test results: the NIST ThermoML archive (doi:10.1021/acs.jced.7b00201)

Assay: xn = mol fraction of the nth substance listed
Details: 100 kPa, Liquid; for viscosity: Falling or rolling sphere viscometry; for mass density: Vibrating tube method

OCC1CC1 [cyclopropylmethanol] + CCCCC1CCCCC1
Details | mass density [kg/m3] | viscosity [mPa·s]
293.15 K, x1 = 0.1039 | 803.82 | 1.319
293.15 K, x1 = 0.2031 | 809.39 | 1.383
293.15 K, x1 = 0.3022 | 815.9 | 1.475
293.15 K, x1 = 0.3997 | 823.34 | 1.602
293.15 K, x1 = 0.4993 | 832.12 | 1.778
293.15 K, x1 = 0.5994 | 842.55 | 2.006
293.15 K, x1 = 0.7 | 855.1 | 2.299
293.15 K, x1 = 0.797 | 869.68 | 2.67
293.15 K, x1 = 0.9004 | 889.05 | 3.23
293.15 K, x1 = 1 | 912.99 | 4.029
298.15 K, x1 = 0.1039 | 800.02 | 1.212
298.15 K, x1 = 0.2031 | 805.52 | 1.265
298.15 K, x1 = 0.3022 | 812 | 1.343
298.15 K, x1 = 0.3997 | 819.39 | 1.451
298.15 K, x1 = 0.4993 | 828.15 | 1.601
298.15 K, x1 = 0.5994 | 838.56 | 1.79
298.15 K, x1 = 0.7 | 851.09 | 2.038
298.15 K, x1 = 0.797 | 865.66 | 2.355
298.15 K, x1 = 0.9004 | 885.02 | 2.821
298.15 K, x1 = 1 | 908.94 | 3.485
303.15 K, x1 = 0.1039 | 796.16 | 1.117
303.15 K, x1 = 0.2031 | 801.61 | 1.162
303.15 K, x1 = 0.3022 | 808.04 | 1.228
303.15 K, x1 = 0.3997 | 815.4 | 1.319
303.15 K, x1 = 0.4993 | 824.14 | 1.448
303.15 K, x1 = 0.5994 | 834.52 | 1.607
303.15 K, x1 = 0.7 | 847.04 | 1.817
303.15 K, x1 = 0.797 | 861.6 | 2.084
303.15 K, x1 = 0.9004 | 880.95 | 2.48
303.15 K, x1 = 1 | 904.85 | 3.037
308.15 K, x1 = 0.1039 | 792.28 | 1.034
308.15 K, x1 = 0.2031 | 797.68 | 1.072
308.15 K, x1 = 0.3022 | 804.06 | 1.128
308.15 K, x1 = 0.3997 | 811.39 | 1.205
308.15 K, x1 = 0.4993 | 820.09 | 1.315
308.15 K, x1 = 0.5994 | 830.45 | 1.45
308.15 K, x1 = 0.7 | 842.95 | 1.628
308.15 K, x1 = 0.797 | 857.5 | 1.855
308.15 K, x1 = 0.9004 | 876.84 | 2.192
308.15 K, x1 = 1 | 900.74 | 2.661
313.15 K, x1 = 0.1039 | 788.38 | 0.96
313.15 K, x1 = 0.2031 | 793.72 | 0.984
313.15 K, x1 = 0.3022 | 800.06 | 1.04
313.15 K, x1 = 0.3997 | 807.34 | 1.106
313.15 K, x1 = 0.4993 | 816.02 | 1.198
313.15 K, x1 = 0.5994 | 826.34 | 1.314
313.15 K, x1 = 0.7 | 838.82 | 1.466
313.15 K, x1 = 0.797 | 853.35 | 1.659
313.15 K, x1 = 0.9004 | 872.69 | 1.947
313.15 K, x1 = 1 | 896.58 | 2.344
318.15 K, x1 = 0.1039 | 784.47 | 0.895
318.15 K, x1 = 0.2031 | 789.74 | 0.919
318.15 K, x1 = 0.3022 | 796.03 | 0.963
318.15 K, x1 = 0.3997 | 803.27 | 1.019
318.15 K, x1 = 0.4993 | 811.9 | 1.098
318.15 K, x1 = 0.5994 | 822.19 | 1.197
318.15 K, x1 = 0.7 | 834.65 | 1.327
318.15 K, x1 = 0.797 | 849.17 | 1.491
318.15 K, x1 = 0.9004 | 868.5 | 1.735
318.15 K, x1 = 1 | 892.38 | 2.074
323.15 K, x1 = 0.1039 | 780.53 | 0.837
323.15 K, x1 = 0.2031 | 785.74 | 0.861
323.15 K, x1 = 0.3022 | 791.97 | 0.894
323.15 K, x1 = 0.3997 | 799.16 | 0.941
323.15 K, x1 = 0.4993 | 807.75 | 1.01
323.15 K, x1 = 0.5994 | 818.01 | 1.094
323.15 K, x1 = 0.7 | 830.44 | 1.205
323.15 K, x1 = 0.797 | 844.94 | 1.345
323.15 K, x1 = 0.9004 | 864.26 | 1.555
323.15 K, x1 = 1 | 888.13 | 1.843
328.15 K, x1 = 0.1039 | 776.57 | 0.784
328.15 K, x1 = 0.2031 | 781.71 | 0.808
328.15 K, x1 = 0.3022 | 787.87 | 0.832
328.15 K, x1 = 0.3997 | 795.01 | 0.873
328.15 K, x1 = 0.4993 | 803.56 | 0.931
328.15 K, x1 = 0.5994 | 813.78 | 1.003
328.15 K, x1 = 0.7 | 826.18 | 1.098
328.15 K, x1 = 0.797 | 840.66 | 1.22
328.15 K, x1 = 0.9004 | 859.97 | 1.399
328.15 K, x1 = 1 | 883.84 | 1.646
333.15 K, x1 = 0.1039 | 772.6 | 0.736
333.15 K, x1 = 0.2031 | 777.65 | 0.758
333.15 K, x1 = 0.3022 | 783.75 | 0.777
333.15 K, x1 = 0.3997 | 790.83 | 0.812
333.15 K, x1 = 0.4993 | 799.33 | 0.862
333.15 K, x1 = 0.5994 | 809.5 | 0.923
333.15 K, x1 = 0.7 | 821.87 | 1.005
333.15 K, x1 = 0.797 | 836.33 | 1.109
333.15 K, x1 = 0.9004 | 855.62 | 1.264
333.15 K, x1 = 1 | 879.49 | 1.476
338.15 K, x1 = 0.1039 | 768.6 | 0.697
338.15 K, x1 = 0.2031 | 773.56 | 0.718
338.15 K, x1 = 0.3022 | 779.59 | 0.733
338.15 K, x1 = 0.3997 | 786.61 | 0.767
338.15 K, x1 = 0.4993 | 795.05 | 0.801
338.15 K, x1 = 0.5994 | 805.18 | 0.853
338.15 K, x1 = 0.7 | 817.51 | 0.923
338.15 K, x1 = 0.797 | 831.94 | 1.012
338.15 K, x1 = 0.9004 | 851.21 | 1.146
338.15 K, x1 = 1 | 875.07 | 1.328
343.15 K, x1 = 0.1039 | 764.58 | 0.656
343.15 K, x1 = 0.2031 | 769.4 | 0.668
343.15 K, x1 = 0.3022 | 775.39 | 0.684
343.15 K, x1 = 0.3997 | 782.35 | 0.709
343.15 K, x1 = 0.4993 | 790.73 | 0.746
343.15 K, x1 = 0.5994 | 800.8 | 0.79
343.15 K, x1 = 0.7 | 813.09 | 0.85
343.15 K, x1 = 0.797 | 827.49 | 0.928
343.15 K, x1 = 0.9004 | 846.74 | 1.043
343.15 K, x1 = 1 | 870.62 | 1.201
